Assay results: patent US20160015786A1, “MOBILIZING AGENTS AND USES THEREFOR” (MATER MEDICAL RESEARCH INSTITUTE LIMITED, priority 2013, published 2016)

Key:
Assay type in all cases: in vivo, C57BL/6 mice
[1] = system: colony-forming cells (CFCs); test: Mobilization of colony-forming cells (CFC/CFU) to blood and spleen, colony assays; details: for number of colony forming units mobilized to the spleen / total number (blood and spleen) of mobilized CFUs: Example 8: H and J 60 mg/kg, K 100 mg/kg
Experimental: Mobilization of colony-forming cells (CFCs) to the blood and spleen were measured (FIG. 1B).
This was divided into two experiments in which G-CSF was administered for 2 days in one experiment and 4 days in the other (FIG. 2). […] Mobilization of CFCs, phenotypic Lin^−CD41^−Sca1^+Kit^+ HSPCs and Lin^−CD41^− Sca1^+Kit^+CD48^−CD150^+ HSCs were measured in blood and spleens.
Additional HIF-α potentiating agents in the form of PHD inhibitors were tested for their ability to enhance mobilization induced by G-CSF.
(§1) At the end of treatment, blood was harvested by cardiac puncture, mice were sacrificed by cervical dislocation and spleens harvested. Femurs were removed, cleaned and the bone marrow was flushed with 1 mL PBS+10% newborn calf serum (NCS).
The number of phenotypic hematopoietic stem and progenitor cells remaining in the bone marrow following treatment was measured by flow cytometry using antibodies specific for lineage markers (CD3, CD5, CD45R/B220, F4/80, Gr1, CD41, Ter119), Sca-1, Kit, CD48 and CD150. Similarly, the number of phenotypic hematopoietic stem cells mobilized into the blood and spleen were measured. Colony assays were also performed on blood and spleen to determine the number of colony forming cells per mL of blood and per spleen. […] Levels of significance for differences were calculated using the Student's t-test.
All procedures were approved by the animal experimentation ethics committee of the University of Queensland. […] Plerixafor (AMD3100 octohydrochloride, Tocris Bioscience, Bristol, UK) was injected intraperitoneally as a single 16 mg/kg dose corresponding to 10 mg/kg of AMD3100 base. Tissues were harvested 1 h after Plerixafor administration. […] Control mice were injected with an equivalent volume of saline. At specified time-points, mice were anesthetized with isoflurane before cardiac puncture to harvest blood. Mice were then euthanized by cervical dislocation and BM and bones harvested.
Optimal concentrations of mouse IL-3, IL-6 and soluble kit ligand were added as conditioned media from stably transfected BHK cell lines. Colonies were counted after 7 days culture at 37° C. in a humidified incubator containing 5% CO2.

[2] = system: white blood cells; test: White blood cell number per mL of blood after mobilization treatment; details: Example 6: 20 mg/kg + G-CSF vs vehicle + G-CSF; FIG. 11
Experimental: (§2) Additional HIF-α potentiating agents in the form of PHD inhibitors were tested for their ability to enhance mobilization induced by G-CSF. Compound A, Compound B or Compound C, were tested in male, 7 weeks-old C57BL/6 mice. Mice were injected twice daily sub-cutaneously with rhuG-CSF at a dose of 125 μg/kg per injection for four days. Mice were gavaged with 20 mg/kg Compound A, Compound B, Compound C or vehicle control once daily for three days beginning on day 1 of the experiment.
as §1

[3] = Spleen weight after mobilization treatment
Experimental: as §2, with “Mice were gavaged with 20 mg/kg Compound A, Compound B, Compound C or vehicle control once daily for three days beginning on day 1 of the experiment.” left out
as §1

[4] = system: hematopoietic stem and progenitor cells; test: Phenotypic HSCs, HSPCs and myeloid progenitors in blood, spleen and bone marrow by flow cytometry; details: for mobilization of myeloid progenitors (LKS−) to the blood / increase in mobilization of myeloid progenitors (LKS−) to the spleen / increase in number of HSPCs (LSK48+ and LSK) mobilized to the spleen / increase in number of phenotypic HSCs (LSK48−150+) mobilized to the spleen: Example 6: 20 mg/kg + G-CSF vs vehicle + G-CSF; for increase in mobilization of myeloid progenitors (LKS−) to the spleen / increase in number of HSPCs (LSK48+ and LSK) mobilized to the spleen / increase in number of phenotypic HSCs (LSK48−150+) mobilized to the spleen: FIGS. 8A-B; for total number of phenotypic HSPCs in the bone marrow: Example 6: 20 mg/kg once daily 3 days + rhuG-CSF 125 μg/kg twice daily 4 days vs vehicle + G-CSF, FIGS. 6A-B; for increase in total number of HSPCs (LSK48+ and LSK) mobilized from the bone marrow / increase in total number of myeloid progenitors (LKS−) mobilized from the bone marrow / increase in total number of phenotypic HSCs (LSK48−150+) mobilized from the bone marrow: Example 6: blood and spleen, 20 mg/kg + G-CSF vs vehicle + G-CSF, FIGS. 9A-B; for total number of HSPCs (LSK48+ and LSK) mobilized blood and spleen / total number of phenotypic HSCs (LSK48−150+) mobilized blood and spleen: Example 8: 60 mg/kg + G-CSF vs vehicle + G-CSF, FIGS. 14A-B
Experimental: as §2, §1
The number of phenotypic hematopoietic stem and progenitor cells remaining in the bone marrow following treatment was measured by flow cytometry using antibodies specific for lineage markers (CD3, CD5, CD45R/B220, F4/80, Gr1, CD41, Ter119), Sca-1, Kit, CD48 and CD150. Similarly, the number of phenotypic hematopoietic stem cells mobilized into the blood and spleen were measured. Colony assays were also performed on blood and spleen to determine the number of colony forming cells per mL of blood and per spleen. All results are presented as mean f standard deviation with n=6 per groups. Levels of significance for differences were calculated using the Student's t-test.
All procedures were approved by the animal experimentation ethics committee of the University of Queensland. All experiments were performed on nine to twelve-week old C57BL/6 male mice or genetically modified mice back-crossed at least 10 times into C57BL/6. Recombinant human G-CSF (Amgen, Thousand Oaks, Calif.) was injected twice daily subcutaneously at 125 μg/kg per injection for up to 4 consecutive days. Plerixafor (AMD3100 octohydrochloride, Tocris Bioscience, Bristol, UK) was injected intraperitoneally as a single 16 mg/kg dose corresponding to 10 mg/kg of AMD3100 base. Tissues were harvested 1 h after Plerixafor administration. […] Compounds H and J were administered at 60 mg/kg and Compound K was administered at 100 mg/kg. Control mice were injected with an equivalent volume of saline. At specified time-points, mice were anesthetized with isoflurane before cardiac puncture to harvest blood. Mice were then euthanized by cervical dislocation and BM and bones harvested.
Following flushing with PBS plus 2% NCS, enriched central BM cells were pelleted at 370×g for 5 minutes at 4° C. and resuspended in CD16/CD32 hybridoma 2.4G2 supernatant to block IgGFc receptors. HSCs were stained with the biotinylated lineage antibody cocktail (CD3, CD5, B220, CD11b, Gr-1, Ter119) and biotinylated CD41 together with streptavidin (SAV)-Pacific Blue, anti-Sca-1-PECY7, anti-KIT-APC, CD48-FITC and CD150-PE as previously described (17). Data were acquired on a CyAn (Dako Cytomation) flow cytometer and analyzed following compensation with single color controls using FlowJo software (Tree Star, Ashland, Oreg.).

[5] = Example 6: 20 mg/kg + G-CSF vs vehicle + G-CSF, FIG. 10
[6] = Example 6: 20 mg/kg + G-CSF vs vehicle + G-CSF, FIG. 11
[7] = Example 7: 20 mg/kg + G-CSF vs vehicle + G-CSF, FIGS. 12A-B
[8] = + G-CSF vs vehicle + G-CSF, FIG. 15
[9] = Example 8: H and J 60 mg/kg, K 100 mg/kg, + G-CSF vs vehicle + G-CSF

| SMILES | number of colony forming units mobilized to the blood [1, 5] | number of white blood cells per mL of blood [2] | increase in spleen weight [3, 6] | mobilization of myeloid progenitors (LKS−) to the blood [4] | increase in mobilization of myeloid progenitors (LKS−) to the spleen [4] | increase in number of HSPCs (LSK48+ and LSK) mobilized to the spleen [4] | increase in number of phenotypic HSCs (LSK48−150+) mobilized to the spleen [4] | total number of phenotypic HSPCs in the bone marrow [4] | increase in total number of HSPCs (LSK48+ and LSK) mobilized from the bone marrow [4] | increase in total number of myeloid progenitors (LKS−) mobilized from the bone marrow [4] | increase in total number of phenotypic HSCs (LSK48−150+) mobilized from the bone marrow [4] | number of colony forming units mobilized to the spleen [1, 8] | total number (blood and spleen) of mobilized CFUs [1, 8] | total number of HSCs and progenitors in the BM [4, 9] | further results |
| --- | --- | --- | --- | --- | --- | --- | --- | --- | --- | --- | --- | --- | --- | --- | --- |
| N#Cc1nc(C(=O)NCC(=O)O)c(O)c2c(Oc3ccc(Cl)cc3)cccc12 [Compound A, {[5-(4-Chloro-phenoxy)-1-cyano-4-hydroxy-isoquinoline-3-carbonyl]-amino}-acetic acid] | significantly increased | significant increase | approximately 2 fold | did not significantly alter | approximately 3 fold | approximately 2 fold | approximately 2 fold | did not significantly alter | approximately 2 fold | approximately 6 fold | approximately 2 fold |  |  |  |  |
| N#Cc1nc(C(=O)NCC(=O)O)c(O)c2c(Oc3ccccc3)cccc12 [Compound B, [(1-Cyano-4-hydroxy-5-phenoxy-isoquinoline-3-carbonyl)-amino]-acetic acid] | no significant change | significant increase | approximately 2 fold | did not significantly alter | approximately 3 fold | approximately 2 fold | approximately 2 fold | did not significantly alter | approximately 2 fold | approximately 6 fold | approximately 2 fold |  |  |  | number of CFUs mobilized to the spleen [1, 5]: statistically significant; total number of CFUs mobilized, relative to Compound A or Compound C with G-CSF ([1]; Example 6: 20 mg/kg + G-CSF, FIG. 10): comparable |
| N#Cc1nc(C(=O)NCC(=O)O)c(O)c2ccn(Cc3ccccc3F)c12 [Compound C, {[7-Cyano-1-(2-fluoro-benzyl)-4-hydroxy-1H-pyrrolo[2,3-c]pyridine-5-carbonyl]-amino}-acetic acid] | significantly increased | significant increase | approximately 2 fold | did not significantly alter | approximately 3 fold | approximately 2 fold | approximately 2 fold | did not significantly alter | approximately 2 fold | approximately 6 fold | approximately 2 fold |  |  |  |  |
| O=c1c(-n2ccnn2)c[nH]n1-c1cc(N2CCOCC2)ncn1 [Compound F, 2-(6-Morpholin-4-yl-pyrimidin-4-yl)-4-[1,2,3]triazol-1-yl-1,2-dihydro-pyrazol-3-one] |  |  |  |  |  |  |  |  |  |  |  |  |  |  | number of CFUs mobilized from the bone marrow to the blood and spleen ([1]; Example 7: D 60 mg/kg, E and F 20 mg/kg, + G-CSF vs vehicle + G-CSF, FIG. 13): significantly increased; increase in spleen weight ([3]; Example 7: D 60 mg/kg, E and F 20 mg/kg, + G-CSF vs vehicle + G-CSF): approximately 2 fold; total number of HSCs (LSK48-150+) mobilized from the bone marrow [4, 7]: significant increase; total number of HSPCs (LSK48+ and LSK) mobilized from the bone marrow [4, 7]: significant increase; total number of HSCs and progenitors in the BM ([4]; Example 7: Compound D 60 mg/kg, E and F 20 mg/kg, + G-CSF vs vehicle + G-CSF): did not significantly alter; total number of myeloid progenitors (LKS−) mobilized ([4]; Example 7: D 60 mg/kg, E and F 20 mg/kg, + G-CSF vs vehicle + G-CSF, FIGS. 12A-B): significant increase |
| O=C(O)CNC(=O)c1ncc2cc(Oc3ccccc3)ccc2c1O [Compound H, [(4-Hydroxy-7-phenoxy-isoquinoline-3-carbonyl)-amino]-acetic acid] |  |  |  |  |  |  |  |  |  |  |  | significant increase | significant increase | did not significantly alter | total number of HSPCs (LSK48+ and LSK) mobilized blood and spleen [4]: significant increase; total number of phenotypic HSCs (LSK48−150+) mobilized blood and spleen [4]: significant increase |
| COc1ccc(Oc2ccc3c(O)c(C(=O)NCC(=O)O)ncc3c2)cc1 [Compound J, {[4-Hydroxy-7-(4-methoxy-phenoxy)-isoquinoline-3-carbonyl]-amino}-acetic acid] |  |  |  |  |  |  |  |  |  |  |  | significant increase | significant increase | did not significantly alter | number of colony forming units mobilized to the blood ([1]; Example 8: 60 mg/kg + G-CSF vs vehicle control, FIG. 15): significant increase; total number of HSPCs (LSK48+ and LSK) mobilized blood and spleen [4]: significant increase; total number of phenotypic HSCs (LSK48−150+) mobilized blood and spleen [4]: significant increase |
| O=C(O)CNC(=O)c1ncc(-c2cccc(F)c2)cc1O [Compound K, {[5-(3-Fluoro-phenyl)-3-hydroxy-pyridine-2-carbonyl]-amino}-acetic acid] |  |  |  |  |  |  |  |  |  |  |  | no significant change | no significant change | did not significantly alter |  |
